From article PMC7756392, “Syntheses of Thailandepsin B Pseudo‐Natural Products: Access to New Highly Potent HDAC Inhibitors via Late‐Stage Modification” (Chemistry (Weinheim an Der Bergstrasse, Germany), 2020)

Experiments:
[1] = system: HeLa cells; assay: MTS cell viability assay, HeLa; format: cell-based; details: for GI50 (in words): MTS assay, 72 h
Method: hHDAC1/6: Activity assays were performed in OptiPlateTM-96 F black microplates (PerkinElmer). Commercial available enzymes (human recombinant HDAC1; BPS Bioscience, catalog no. 50051 and human recombinant HDAC6; BPS Bioscience, catalog no. 50006) were used. Total assay volume of 60 µL contains 42 µl of assay buffer (50 mM Tris -HCl, pH 8.0, 137 mM NaCl, 2.7 mM KCl, 1 mM MgCl2, 0.2 mM TCEP and 1 mg/mL bovine serum albumin), 10 µL of enzyme solution in assay buffer, 3 µL of increasing concentrations of inhibitors in DMSO and 5 μL of the fluorogenic substrate ZMAL (Z -(Ac)Lys-AMC) (126 μM). After incubation (90 min, 37 °C) 60 µL of stop solution, containing 5 μL Trichostatin A (TSA) (33 μM) and 10 μL trypsin (6 mg/mL) in trypsin buffer (Tris-HCl 50 mM, pH 8.0, NaCl 100 mM), were added. After incubation (30 min at 37 °C) fluorescence signal (λex = 390 nm, λem = 460 nm) was measured on a BMG LABTECH POLARstar OPTIMA plate reader (BMG Labtechnologies, Germany).10 hHDAC8: Enzyme was obtained from cooperation partners (Romier).11 Assay was performed as described before. […] After incubation (30 min at 37 °C) fluorescence signal was determined as mentioned for HDAC1/6.12 […]
Cell proliferation was determined by using the Celltiter 96 AQueous nonradioactive Proliferation Assay (Promega). After 72h of incubation time with inhibitor or DMSO, 20 µL of a mixture (20:1) consisting of MTS (3-(4,5-dimethylthiazol-2-yl)-5-(3-carboxymethoxyphenyl)-2-(4-sulfophenyl-2H-tetrazolium) and PMS (phenazine methosulfate) were added to each well. Absorption was measured after another 2-4 h with a BMG LABTECH POLARstar OPTIMA plate reader (BMG Labtechnologies, Germany).
Experiments were performed in triplicates and GI50 values were calculated using the software Origin 2019. […]
CO2. […] After another 20 min of incubation, the fluorescence signal (λex = 390 nm, λem = 460 nm) was measured on a BMG LABTECH POLARstar OPTIMA plate reader (BMG Labtechnologies, Germany). […]

[2] = target: T1, hHDAC8 (Homo sapiens, UniProt Q9BY41); assay: ZMTFAL trypsin assay, HDAC8; format: biochemical
T1 sequence (Q9BY41 1-377): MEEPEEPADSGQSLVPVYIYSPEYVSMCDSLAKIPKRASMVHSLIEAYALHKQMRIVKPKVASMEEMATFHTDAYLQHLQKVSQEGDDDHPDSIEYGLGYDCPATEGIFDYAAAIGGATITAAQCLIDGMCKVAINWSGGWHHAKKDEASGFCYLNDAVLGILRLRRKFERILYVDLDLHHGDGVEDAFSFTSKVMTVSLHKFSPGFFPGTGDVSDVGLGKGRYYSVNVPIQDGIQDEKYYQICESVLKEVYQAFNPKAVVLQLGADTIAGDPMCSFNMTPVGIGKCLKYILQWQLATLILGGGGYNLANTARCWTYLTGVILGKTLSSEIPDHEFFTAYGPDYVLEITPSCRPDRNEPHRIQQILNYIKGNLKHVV
Method: [28] Assays for HDAC1/6 were prepared according to: B. Heltweg , J. Trapp , M. Jung , Methods 2005, 36, 332–337; assays for HDAC8 were prepared according to: J. Senger , J. Melesina , M. Marek , C. Romier , I. Oehme , O. Witt , W. Sippl , M. Jung , J. Med. Chem. 2016, 59, 1545–1555. […]
After […]
incubation (30 min at 37 °C) fluorescence signal (λex = 390 nm, λem = 460 nm) was measured on a BMG LABTECH POLARstar OPTIMA plate reader (BMG Labtechnologies, Germany).10 hHDAC8: Enzyme was obtained from cooperation partners (Romier).11 Assay was performed as described before. 22.5 µL of enzyme solution in assay buffer (15 mM Tris, pH 7.5, 50 mM KH2PO4, 10 mM KCl, 3 mM MgSO4·7H2O and 0.2 mM TCEP), increasing inhibitor concentrations in DMSO (2.5 μL) and 5 µL of ZMTFAL substrate solution ([…]) were incubated for 90 min at 37 °C in ½ AreaPlate-96 F microplates (PerkinElmer). 30 µL of stop solution (see HDAC1/6) were added. After incubation (30 min at 37 °C) fluorescence signal was […]

Row | inhibition at 10 µM [2] | SMILES | inhibition at 5 µM ([1]; Homo sapiens, 5 μM, read-out: inhibition of cell growth at 5 μM) | GI50 (in words) [1]
1 | 21% | CCCC[C@H]1NC(=O)C[C@@H](/C=C/CCC(=O)NO)OC(=O)C[C@H](O)[C@@H]([C@@H](C)CC)NC(=O)[C@@H](C)NC1=O [compound 8] | 30% | 
2 | 22% | CCCC[C@H]1NC(=O)C[C@@H](/C=C/CCSC(C)=O)OC(=O)C[C@H](O)[C@@H]([C@@H](C)CC)NC(=O)[C@@H](C)NC1=O [compound 33] |  | nanomolar

Row | SMILES | inhibition at 10 µM [2] | inhibition at 5 µM ([1]; Homo sapiens, 5 μM, read-out: inhibition of cell growth at 5 μM) | GI50 (in words) [1]
3 | CCCC[C@H]1NC(=O)C[C@@H](/C=C/CCSC(C)=O)OC(=O)C[C@H](O[Si](C)(C)C(C)(C)C)[C@@H]([C@@H](C)CC)NC(=O)[C@@H](C)NC1=O [compound 32] | 30% |  | micromolar
